The molecules below were run against T1, human FSH receptor (Homo sapiens, UniProt P23945) (assay: Antagonistic activity of compounds at the human FSH receptor expressed in CHO cells (CRE-luciferase reporter)). Conditions: CHO cells stably transfected with human FSH receptor and CRE/luciferase reporter; together with 49 μM recFSH; 4 hours incubation; 1% DMSO; read-out: IC50 (concentration of test compound causing half-maximal inhibition of the maximally attainable inhibition of the luciferase stimulation).
T1 construct: expressed in transfected cells; host or cells: CHO cells, stably transfected; cotransfected with CRE-luciferase reporter
T1 sequence (P23945 18-695): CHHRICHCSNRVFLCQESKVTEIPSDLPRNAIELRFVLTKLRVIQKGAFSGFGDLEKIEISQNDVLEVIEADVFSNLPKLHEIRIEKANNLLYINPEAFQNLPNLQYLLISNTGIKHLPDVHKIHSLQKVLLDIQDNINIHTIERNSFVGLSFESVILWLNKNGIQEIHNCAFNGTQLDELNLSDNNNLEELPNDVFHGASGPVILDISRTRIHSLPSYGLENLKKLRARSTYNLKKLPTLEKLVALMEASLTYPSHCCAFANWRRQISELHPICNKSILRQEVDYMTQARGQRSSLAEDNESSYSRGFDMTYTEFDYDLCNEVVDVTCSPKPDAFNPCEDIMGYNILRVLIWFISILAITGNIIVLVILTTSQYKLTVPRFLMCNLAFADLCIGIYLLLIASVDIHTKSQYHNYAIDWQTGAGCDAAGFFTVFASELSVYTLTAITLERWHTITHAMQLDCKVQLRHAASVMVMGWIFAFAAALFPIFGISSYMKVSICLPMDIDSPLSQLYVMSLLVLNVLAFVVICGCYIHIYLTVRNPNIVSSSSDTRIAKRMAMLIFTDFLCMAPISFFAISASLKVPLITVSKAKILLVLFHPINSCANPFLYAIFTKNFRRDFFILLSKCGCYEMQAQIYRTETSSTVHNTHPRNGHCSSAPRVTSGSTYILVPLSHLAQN
Format: cell-based
Experimental: Antagonistic Activity of Compounds at the Human FSH Receptor Expressed in CHO Cells
Antagonistic activity of the compounds at the human FSH receptor was determined in Chinese Hamster Ovary (CHO) cells stably transfected with the human FSH receptor and cotransfected with a cAMP responsive element (CRE)/promotor directing the expression of a firefly luciferase reporter gene. Binding of the compounds to the Gs protein-coupled FSH receptor will result in an increase of cAMP, which in turn will induce an increased transactivation of the luciferase reporter. The cells (7,500 cells/well of a 384 well plate) were incubated in Dulbecco' minimal essential F12 modified medium (Invitrogen), supplemented with 1 μg/ml bovine insulin, 5 μg/ml human apo-transferrin, 100 U/ml penicillin G and 100 μg/ml streptomycin with the test compounds (concentration between 0.316 nM and 10.0 μM) in duplicate together with […] (which, at this concentration in the absence of test compound, induces 80% of the maximal luciferase stimulation) in a humidified atmosphere (95%) at 5-7% CO2 and 37° C. The final concentration of DMSO was 1%. After 4 hours of incubation, plates were allowed to adjust to room temperature for 1 hour. Then, SteadyLite (PerkinElmer) solution was added to the wells and cells were allowed to lyse for at least 1 hour at room temperature. Subsequently, luciferase activity was measured in a luminescence counter. The signal is expressed as counts per second (cps). The IC50 (concentration of test compound causing half-maximal (50%) inhibition of the maximally attainable inhibition of the luciferase stimulation by the compound) and efficacy of the compounds were determined using the software program MathIQ (version 2.3, ID Business Solutions Limited).

SMILES | IC50
COc1cc2c(cc1OC(C)C)-c1cc(C(=O)NC(C)(CO)Cc3c[nH]c4ccccc34)c(-c3cccc(F)c3)n1CC2 (centres unmarked) [Example 2] | 100 to 1000 nM
COc1cc2c(c(OC)c1OC)CCn1c-2cc(C(=O)N[C@@H](CO)Cc2c[nH]c3ccccc23)c1-c1ccccc1 [Example 60, (R)—N-(1-hydroxy-3-(1H-indol-3-yl)propan-2-yl)-7,8,9-trimethoxy-3-phenyl-5,6-dihydropyrrolo[2,1-a]isoquinoline-2-carboxamide] | < 100 nM
COc1cc2c(cc1OC(C)C)-c1cc(C(=O)N[C@@H](CO)Cc3c[nH]c4ccccc34)c(C(=O)c3ccccc3)n1CC2 [Example 29, (R)-3-benzoyl-N-(1-hydroxy-3-(1H-indol-3-yl)propan-2-yl)-9-isopropoxy-8-methoxy-5,6-dihydropyrrolo[2,1-a]isoquinoline-2-carboxamide] | < 100 nM
COc1cc2c(cc1OC(C)C)-c1cc(C(=O)N[C@@H](CO)Cc3c[nH]c4ccccc34)c(C(=O)C(C)C)n1CC2 [Example 24, (R)—N-(1-hydroxy-3-(1H-indol-3-yl)propan-2-yl)-3-isobutyryl-9-isopropoxy-8-methoxy-5,6-dihydropyrrolo[2,1-a]isoquinoline-2-carboxamide] | < 100 nM
COc1cc2c(cc1OC(C)C)-c1cc(C(=O)N[C@@H](CO)Cc3c[nH]c4ccccc34)c(-c3ccc(F)cc3)n1CC2 [Example 13, (R)-3-(4-fluorophenyl)-N-(1-hydroxy-3-(1H-indol-3-yl)propan-2-yl)-9-isopropoxy-8-methoxy-5,6-dihydropyrrolo[2,1-a]isoquinoline-2-carboxamide] | < 100 nM
COc1cc2c(cc1OC(C)C)-c1cc(C(=O)N[C@@H](CO)Cc3c[nH]c4ccccc34)c(C(=O)C(C)(C)C)n1CC2 [Example 25, (R)—N-(1-hydroxy-3-(1H-indol-3-yl)propan-2-yl)-9-isopropoxy-8-methoxy-3-pivaloyl-5,6-dihydropyrrolo[2,1-a]isoquinoline-2-carboxamide] | < 100 nM
COc1cc2c(cc1OC(C)C)-c1cc(C(=O)N[C@@H](CO)Cc3c[nH]c4ccccc34)c(C=C(C)C)n1CC2 [Example 23, (R)—N-(1-hydroxy-3-(1H-indol-3-yl)propan-2-yl)-9-isopropoxy-8-methoxy-3-(2-methylprop-1-enyl)-5,6-dihydropyrrolo[2,1-a]isoquinoline-2-carboxamide] | < 100 nM
COc1cc2c(cc1OC(C)C)-c1cc(C(=O)N[C@@H](CO)Cc3c[nH]c4ccccc34)c(-c3cccc(C)c3)n1CC2 [Example 14, (R)—N-(1-hydroxy-3-(1H-indol-3-yl)propan-2-yl)-9-isopropoxy-8-methoxy-3-m-tolyl-5,6-dihydropyrrolo[2,1-a]isoquinoline-2-carboxamide] | < 100 nM
COc1cc2c(cc1OC(C)C)-c1cc(C(=O)N[C@@H](CO)Cc3c[nH]c4ccccc34)c(-c3ccc(N)nc3)n1CC2 [Example 15, (R)-3-(6-aminopyridin-3-yl)-N-(1-hydroxy-3-(1H-indol-3-yl)propan-2-yl)-9-isopropoxy-8-methoxy-5,6-dihydropyrrolo[2,1-a]isoquinoline-2-carboxamide] | 100 to 1000 nM
COc1cc2c(c(OC)c1OC)CCn1c-2cc(C(=O)N[C@@H](CO)Cc2c[nH]c3ccccc23)c1-c1cccs1 [Example 61, (R)—N-(1-hydroxy-3-(1H-indol-3-yl)propan-2-yl)-7,8,9-trimethoxy-3-(thiophen-2-yl)-5,6-dihydropyrrolo[2,1-a]isoquinoline-2-carboxamide] | < 100 nM
COc1cc2c(cc1-c1cnc(N(C)C)nc1)-c1cc(C(=O)N[C@@H](CO)Cc3c[nH]c4ccccc34)c(-c3cccs3)n1CC2 [Example 56, (R)-9-(2-(dimethylamino)pyrimidin-5-yl)-N-(1-hydroxy-3-(1H-indol-3-yl)propan-2-yl)-8-methoxy-3-(thiophen-2-yl)-5,6-dihydropyrrolo[2,1-a]isoquinoline-2-carboxamide] | < 100 nM
COc1cc2c(cc1-c1cncnc1)-c1cc(C(=O)N[C@@H](CO)Cc3c[nH]c4ccccc34)c(-c3cccs3)n1CC2 [Example 49, (R)—N-(1-hydroxy-3-(1H-indol-3-yl)propan-2-yl)-8-methoxy-9-(pyrimidin-5-yl)-3-(thiophen-2-yl)-5,6-dihydropyrrolo[2,1-a]isoquinoline-2-carboxamide] | < 100 nM
COc1cc2c(cc1OC(C)C)-c1cc(C(=O)N[C@@H](CO)Cc3c[nH]c4ccccc34)c(-c3ccccc3F)n1CC2 [Example 18, 3-(2-fluorophenyl)-N—((R)-1-hydroxy-3-(1H-indol-3-yl)propan-2-yl)-9-isopropoxy-8-methoxy-5,6-dihydropyrrolo[2,1-a]isoquinoline-2-carboxamide] | < 100 nM
COc1cc2c(cc1OC(C)C)-c1cc(C(=O)NC(CO)C3(c4c[nH]c5ccccc45)CC3)c(-c3cccc(F)c3)n1CC2 (centres unmarked) [Example 3] | 100 to 1000 nM
C=CCOc1cc2c(cc1OC)CCn1c-2cc(C(=O)N[C@@H](CO)Cc2c[nH]c3ccccc23)c1-c1cccs1 [Example 41] | < 100 nM

Next, values leading:

IC50 | SMILES
< 100 nM | COc1cc2c(cc1OCc1ccccc1)-c1cc(C(=O)N[C@@H](CO)Cc3c[nH]c4ccccc34)c(-c3cccc(F)c3)n1CC2 [Example 34, (R)-9-(benzyloxy)-3-(3-fluorophenyl)-N-(1-hydroxy-3-(1H-indol-3-yl)propan-2-yl)-8-methoxy-5,6-dihydropyrrolo[2,1-a]isoquinoline-2-carboxamide]
< 100 nM | CCc1cc2c(cc1OC)CCn1c-2cc(C(=O)N[C@@H](CO)Cc2c[nH]c3ccccc23)c1-c1cccc(F)c1 [Example 43, (R)-9-ethyl-3-(3-fluorophenyl)-N-(1-hydroxy-3-(1H-indol-3-yl)propan-2-yl)-8-methoxy-5,6-dihydropyrrolo[2,1-a]isoquinoline-2-carboxamide]
< 100 nM | COc1cc2c(cc1OCC1CC1)-c1cc(C(=O)N[C@@H](CO)Cc3c[nH]c4ccccc34)c(-c3cccc(F)c3)n1CC2 [Example 36, (R)-9-(cyclopropylmethoxy)-3-(3-fluorophenyl)-N-(1-hydroxy-3-(1H-indol-3-yl)propan-2-yl)-8-methoxy-5,6-dihydropyrrolo[2,1-a]isoquinoline-2-carboxamide]
< 100 nM | COc1cccc(-c2c(C(=O)N[C@@H](CO)Cc3c[nH]c4ccccc34)cc3n2CCc2cc(OC)c(OC)cc2-3)c1 [Example 12, (R)—N-(1-hydroxy-3-(1H-indol-3-yl)propan-2-yl)-8,9-dimethoxy-3-(3-methoxyphenyl)-5,6-dihydropyrrolo[2,1-a]isoquinoline-2-carboxamide]
< 100 nM | COc1cc2c(cc1OC)-c1cc(C(=O)N[C@@H](CO)Cc3c[nH]c4ccccc34)c(-c3ccc(F)cc3)n1CC2 [Example 6, (R)—N-(1-hydroxy-3-(1H-indol-3-yl)propan-2-yl)-8,9-dimethoxy-3-(4-fluorophenyl)-5,6-dihydropyrrolo[2,1-a]isoquinoline-2-carboxamide]
100 to 1000 nM | COc1cc2c(cc1OC)-c1nc(C(=O)N[C@@H](CO)Cc3c[nH]c4ccccc34)c(-c3cccc(F)c3)n1CC2 [Example 66, (R)-3-(3-fluorophenyl)-N-(1-hydroxy-3-(1H-indol-3-yl)propan-2-yl)-8,9-dimethoxy-5,6-dihydroimidazo[2,1-a]isoquinoline-2-carboxamide]
< 100 nM | COc1cc2c(cc1C=C(C)C)-c1cc(C(=O)N[C@@H](CO)Cc3c[nH]c4ccccc34)c(-c3cccc(F)c3)n1CC2 [Example 45, (R)-3-(3-fluorophenyl)-N-(1-hydroxy-3-(1H-indol-3-yl)propan-2-yl)-8-methoxy-9-(2-methylprop-1-enyl)-5,6-dihydropyrrolo[2,1-a]isoquinoline-2-carboxamide]
< 100 nM | COc1cc2c(cc1-c1cccnc1OC)-c1cc(C(=O)N[C@@H](CO)Cc3c[nH]c4ccccc34)c(-c3cccc(F)c3)n1CC2 [Example 53, 3-(3-fluorophenyl)-N—((R)-1-hydroxy-3-(1H-indol-3-yl)propan-2-yl)-8-methoxy-9-(2-methoxypyridin-3-yl)-5,6-dihydropyrrolo[2,1-a]isoquinoline-2-carboxamide]
